Measurements published in patent US20230106943A1, “ENGINEERED ANTIMICROBIAL PEPTIDES AND USAGE THEREOF” (Peptilogics, Inc., priority 2021, published 2023).
No end group written: not given here.

Experiment: Example 4 stability of concentrated solutions: HPLC-UV Assay/RS (method 78917)
Format: physicochemical
Method: The peptide formulation of SEQ ID NO: 1 dissolved in a saline solution with a pH of 5.0±0.1 was tested for stability under either −20° C. or 40° C. with 75% relative humidity (RH). […]

[1] = 15.3 mg/mL solution, 40° C. and 75% RH, 1 Month
[2] = 15.3 mg/mL solution, 40° C. and 75% RH, 2 Month
[3] = 15.3 mg/mL solution, 40° C. and 75% RH, 3 Month
[4] = 15.3 mg/mL solution, 40° C. and 75% RH, 6 Month
[5] = 15.3 mg/mL solution, −20° C., 0 Month
[6] = 15.3 mg/mL solution, −20° C., 1 Month
[7] = 15.3 mg/mL solution, −20° C., 2 Month
[8] = 15.3 mg/mL solution, −20° C., 3 Month
[9] = 15.3 mg/mL solution, −20° C., 6 Month
[10] = 15.3 mg/mL solution, −20° C., 9 Month
[11] = 36.7 mg/mL solution, 40° C. and 75% RH, 1 Month
[12] = 36.7 mg/mL solution, 40° C. and 75% RH, 2 Month
[13] = 36.7 mg/mL solution, 40° C. and 75% RH, 3 Month
[14] = 36.7 mg/mL solution, 40° C. and 75% RH, 6 Month
[15] = 36.7 mg/mL solution, −20° C., 0 Month
[16] = 36.7 mg/mL solution, −20° C., 1 Month

## RRWVRRVRRVWRRVVRVVRRWVRR-NH2 [SEQ ID NO: 1]
[1]
  HPLC-UV Assay/RS % Assay: 96.0%
  HPLC-UV Assay/RS % Purity: 99%
  HPLC-UV Assay/RS % Total Impurities: 1.0%
  RRT 1.02 Mean % Area: 1.0%
  RRT […] area (Inj-1): 0.97%
  RRT […] area (Inj-2): 0.95%
  SEQ ID NO: 1 % area (Inj-1): 99.03%
  SEQ ID NO: 1 % area (Inj-2): 99.05%
  SEQ ID NO: 1 Mean % Area: 99.0%
[2]
  HPLC-UV Assay/RS % Assay: 103.8%
  HPLC-UV Assay/RS % Purity: 99%
  HPLC-UV Assay/RS % Total Impurities: 1.4%
  HPLC-UV Assay/RS Impurities RRT/%, RRT 1.02: 1.02/1.0%
  HPLC-UV Assay/RS Impurities RRT/%, RRT 1.08: 1.08/0.2%
  HPLC-UV Assay/RS Impurities RRT/%, RRT 1.10: 1.10/0.2%
[3]
  HPLC-UV Assay/RS % Assay: 96.8%
  HPLC-UV Assay/RS % Purity: 99%
  HPLC-UV Assay/RS % Total Impurities: 1.3%
  HPLC-UV Assay/RS Impurities RRT/%, RRT 1.02: 1.02/1.1%
  HPLC-UV Assay/RS Impurities RRT/%, RRT 1.25: 1.25/0.2%
[4]
  % assay: 97.5%
  HPLC-UV Assay/RS % Purity: 98%
  HPLC-UV Assay/RS % Total Impurities: 2.5%
[5]
  HPLC-UV Assay/RS % Assay: 99.8%
  HPLC-UV Assay/RS % Purity: 99.0%
  HPLC-UV Assay/RS % Total Impurities: 1.0%
  RRT 1.02 Mean % Area: 1.0%
  RRT […] area (Inj-1): 1.05%
  RRT […] area (Inj-2): 1.03%
  SEQ ID NO: 1 % area (Inj-1): 98.95%
  SEQ ID NO: 1 % area (Inj-2): 98.97%
  SEQ ID NO: 1 Mean % Area: 99.0%
[6]
  HPLC-UV Assay/RS % Assay: 103.4%
  HPLC-UV Assay/RS % Purity: 99%
  HPLC-UV Assay/RS % Total Impurities: 0.9%
  RRT 1.02 Mean % Area: 0.9%
  RRT […] area (Inj-1): 0.88%
  RRT […] area (Inj-2): 0.87%
  SEQ ID NO: 1 % area (Inj-1): 99.12%
  SEQ ID NO: 1 % area (Inj-2): 99.13%
  SEQ ID NO: 1 Mean % Area: 99.1%
[7]
  HPLC-UV Assay/RS % Assay: 106.0%
  HPLC-UV Assay/RS % Purity: 99%
  HPLC-UV Assay/RS % Total Impurities: 0.9%
  HPLC-UV Assay/RS Impurities RRT/%, RRT 1.02: 1.02/0.9%
[8]
  HPLC-UV Assay/RS % Assay: 99.7%
  HPLC-UV Assay/RS % Purity: 99%
  HPLC-UV Assay/RS % Total Impurities: 0.9%
  HPLC-UV Assay/RS Impurities RRT/%, RRT 1.02: 1.02/0.9%
[9]
  HPLC-UV Assay/RS % Assay: 102.1%
  HPLC-UV Assay/RS % Purity: 99%
  HPLC-UV Assay/RS % Total Impurities: 0.9%
  HPLC-UV Assay/RS Impurities RRT/%, RRT 1.02: 1.02/0.9%
[10]
  HPLC-UV Assay/RS % Assay: 101.0%
  HPLC-UV Assay/RS % Purity: 100%
  HPLC-UV Assay/RS % Total Impurities: 0.3%
  HPLC-UV Assay/RS Impurities RRT/%, RRT 1.01: 1.01/0.3%
[11]
  % Purity: 99%
  % Total Impurities: 0.9%
  HPLC-UV % Assay: 97.5%
  RRT 1.02 impurity % area (Inj-1): 0.94 % area
  RRT 1.02 impurity % area (Inj-2): 0.91 % area
  RRT 1.02 impurity Mean % Area: 0.9 % Area
  SEQ ID NO: 1 peak % area (Inj-1): 99.06 % area
  SEQ ID NO: 1 peak % area (Inj-2): 99.09 % area
  SEQ ID NO: 1 peak Mean % Area: 99.1 % Area
[12]
  % Purity: 99%
  % Total Impurities: 1.2%
  HPLC-UV % Assay: 101.7%
[13]
  % Purity: 99%
  % Total Impurities: 1.5%
  HPLC-UV % Assay: 97.3%
[14]
  % Purity: 97%
  % Total Impurities: 3.0%
  HPLC-UV % Assay: 94.8%
[15]
  HPLC-UV Assay/RS % Assay: 97.9%
  HPLC-UV Assay/RS % Purity: 99.0%
  HPLC-UV Assay/RS % Total Impurities: 1.0%
  RRT 1.02 Mean % Area: 1.0%
  RRT […] area (Inj-1): 1.02%
  RRT […] area (Inj-2): 1.03%
  SEQ ID NO: 1 % area (Inj-1): 98.98%
  SEQ ID NO: 1 % area (Inj-2): 98.97%
  SEQ ID NO: 1 Mean % Area: 99.0%
[16]
  HPLC-UV Assay/RS % Assay: 98.6%
  HPLC-UV Assay/RS % Purity: 99%
  HPLC-UV Assay/RS % Total Impurities: 0.9%
  RRT 1.02 Mean % Area: 0.9%
  RRT […] area (Inj-1): 0.87%
  RRT […] area (Inj-2): 0.88%
